# Assay results taken from PubChem BioAssay AID1963853 (Molecular Pharmacology Branch, DTP, NCI, 2024).
# Tested on: 266295-075-R-J1-PDC spheroid viability
# Assay: Anticancer human tumor 266295-075-R-J1-PDC patient-derived head and neck squamous carcinoma cell line growth inhibition [POLQ]
# Conditions: spheroids with HUVEC and MSC; for IC50: curve of first compound; for viability, T/C: stronger effect = lower value
# Outline: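 Three-cell-type spheroids modelling solid tumor plus stroma served as the readout system; POL inhibitors were tested individually and in combination, concentration ranges set by clinical Cmax where known.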
# [1] = second compound 0.0316 µM, first compound 0.0316 µM
# [2] = second compound 0.0316 µM, first compound 0.1 µM
# [3] = second compound 0.0316 µM, first compound 0.316 µM
# [4] = second compound 0.0316 µM, first compound 1 µM
# [5] = second compound 0.0316 µM, first compound 3.16 µM
# [6] = second compound 0.0316 µM, first compound 10 µM
# [7] = second compound 0.1 µM, first compound 0.0316 µM
# [8] = second compound 0.1 µM, first compound 0.1 µM
# [9] = second compound 0.1 µM, first compound 0.316 µM
# [10] = second compound 0.1 µM, first compound 1 µM
# [11] = second compound 0.1 µM, first compound 3.16 µM
# [12] = second compound 0.1 µM, first compound 10 µM
# [13] = second compound 0.316 µM, first compound 0.0316 µM
# [14] = second compound 0.316 µM, first compound 0.1 µM
# [15] = second compound 0.316 µM, first compound 0.316 µM
# [16] = second compound 0.316 µM, first compound 1 µM
# [17] = second compound 0.316 µM, first compound 3.16 µM
# [18] = second compound 0.316 µM, first compound 10 µM
# [19] = second compound 1 µM, first compound 0.0316 µM
# [20] = second compound 1 µM, first compound 0.1 µM
# [21] = second compound 1 µM, first compound 0.316 µM
# [22] = second compound 1 µM, first compound 1 µM
# [23] = second compound 1 µM, first compound 3.16 µM
# [24] = second compound 1 µM, first compound 10 µM
# [25] = second compound 3.16 µM, first compound 0.0316 µM
# [26] = second compound 3.16 µM, first compound 0.1 µM
# [27] = second compound 3.16 µM, first compound 0.316 µM
# [28] = second compound 3.16 µM, first compound 1 µM
# [29] = second compound 3.16 µM, first compound 3.16 µM
# [30] = second compound 3.16 µM, first compound 10 µM
# [31] = second compound 10 µM, first compound 0.0316 µM
# [32] = second compound 10 µM, first compound 0.1 µM
# [33] = second compound 10 µM, first compound 0.316 µM
# [34] = second compound 10 µM, first compound 1 µM
# [35] = second compound 10 µM, first compound 3.16 µM
# [36] = second compound 10 µM, first compound 10 µM
# 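Also: spheroids exposed to compounds for seven days before readout.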
smiles,measurement,setting,value
COc1cccc2c1C(=O)c1c(O)c3c(c(O)c1C2=O)CC(O)(C(=O)CO)CC3OC1CC(N)C(O)C(C)O1 (stereo unspecified) + Cc1cccc(N(C)C(=O)C2C(O)CCN2c2nc(C)cc(C(F)(F)F)c2C#N)c1,IC50,second compound 0.0316 µM,1580 nM
same,IC50,second compound 0.1 µM,1600 nM
same,IC50,second compound 0.316 µM,1350 nM
same,IC50,second compound 1 µM,1350 nM
same,IC50,second compound 3.16 µM,1120 nM
same,IC50,second compound 10 µM,838 nM
same,"viability, T/C",[1],69.3%
same,"viability, T/C",[2],74.4%
same,"viability, T/C",[3],65.8%
same,"viability, T/C",[4],59.6%
same,"viability, T/C",[5],36.1%
same,"viability, T/C",[6],1.6%
same,"viability, T/C",[7],79.5%
same,"viability, T/C",[8],81.9%
same,"viability, T/C",[9],61.6%
same,"viability, T/C",[10],60.2%
same,"viability, T/C",[11],40%
same,"viability, T/C",[12],1.95%
same,"viability, T/C",[13],84.5%
same,"viability, T/C",[14],76%
same,"viability, T/C",[15],59.8%
same,"viability, T/C",[16],60.3%
same,"viability, T/C",[17],36.1%
same,"viability, T/C",[18],2.38%
same,"viability, T/C",[19],85.1%
same,"viability, T/C",[20],90.8%
same,"viability, T/C",[21],79.4%
same,"viability, T/C",[22],55.7%
same,"viability, T/C",[23],28.3%
same,"viability, T/C",[24],1.59%
same,"viability, T/C",[25],81.1%
same,"viability, T/C",[26],81.1%
same,"viability, T/C",[27],61.6%
same,"viability, T/C",[28],60.3%
same,"viability, T/C",[29],19.1%
same,"viability, T/C",[30],1.26%
same,"viability, T/C",[31],90.9%
same,"viability, T/C",[32],84.6%
same,"viability, T/C",[33],67.7%
same,"viability, T/C",[34],52.3%
same,"viability, T/C",[35],9.35%
same,"viability, T/C",[36],1.42%
CC1COCCN1c1cc(C2(O)CC3CCC(C2)O3)c2cnn(-c3ccn[nH]3)c2n1 (stereo unspecified) + Cc1cccc(N(C)C(=O)C2C(O)CCN2c2nc(C)cc(C(F)(F)F)c2C#N)c1,IC50,second compound 0.0316 µM,839 nM
same,IC50,second compound 0.1 µM,872 nM
same,IC50,second compound 0.316 µM,920 nM
same,IC50,second compound 1 µM,568 nM
same,IC50,second compound 3.16 µM,860 nM
same,IC50,second compound 10 µM,970 nM
same,"viability, T/C",[1],84%
same,"viability, T/C",[2],74.1%
same,"viability, T/C",[3],61.3%
same,"viability, T/C",[4],47%
same,"viability, T/C",[5],36.8%
same,"viability, T/C",[6],25%
same,"viability, T/C",[7],86%
same,"viability, T/C",[8],69.1%
same,"viability, T/C",[9],76.2%
same,"viability, T/C",[10],46%
same,"viability, T/C",[11],37.5%
same,"viability, T/C",[12],29.7%
same,"viability, T/C",[13],82.1%
same,"viability, T/C",[14],74.1%
same,"viability, T/C",[15],60.6%
same,"viability, T/C",[16],49%
same,"viability, T/C",[17],37.6%
same,"viability, T/C",[18],26.3%
same,"viability, T/C",[19],94.1%
same,"viability, T/C",[20],63.6%
same,"viability, T/C",[21],58.4%
same,"viability, T/C",[22],45.9%
same,"viability, T/C",[23],40%
same,"viability, T/C",[24],26.1%
same,"viability, T/C",[25],89.5%
same,"viability, T/C",[26],74%
same,"viability, T/C",[27],60.3%
same,"viability, T/C",[28],51.5%
same,"viability, T/C",[29],34.5%
same,"viability, T/C",[30],31.1%
same,"viability, T/C",[31],114%
same,"viability, T/C",[32],88.8%
same,"viability, T/C",[33],69.1%
same,"viability, T/C",[34],49.4%
same,"viability, T/C",[35],35.2%
same,"viability, T/C",[36],28.1%
CC(=O)O[C@H]1C(=O)[C@@]2(C)[C@H]([C@H](OC(=O)c3ccccc3)[C@]3(O)C[C@H](OC(=O)[C@H](O)[C@@H](NC(=O)c4ccccc4)c4ccccc4)C(C)=C1C3(C)C)[C@]1(OC(C)=O)CO[C@@H]1C[C@@H]2O + COC1C(OC(N)=O)C(O)C(Oc2ccc3c(O)c(NC(=O)c4ccc(O)c(CC=C(C)C)c4)c(=O)oc3c2C)OC1(C)C,IC50,second compound 0.0316 µM,> 3000 nM
same,IC50,second compound 0.1 µM,> 3000 nM
same,IC50,second compound 0.316 µM,> 3000 nM
same,IC50,second compound 1 µM,> 3000 nM
same,IC50,second compound 3.16 µM,> 3000 nM
same,IC50,second compound 10 µM,> 3000 nM
same,"viability, T/C","second compound 0.0316 µM, first compound 0.00949 µM",79.5%
same,"viability, T/C","second compound 0.0316 µM, first compound 0.03 µM",69.1%
same,"viability, T/C","second compound 0.0316 µM, first compound 0.0949 µM",63.3%
same,"viability, T/C","second compound 0.0316 µM, first compound 0.3 µM",86.2%
same,"viability, T/C","second compound 0.0316 µM, first compound 0.949 µM",75.6%
same,"viability, T/C","second compound 0.0316 µM, first compound 3 µM",71.3%
same,"viability, T/C","second compound 0.1 µM, first compound 0.00949 µM",92.3%
same,"viability, T/C","second compound 0.1 µM, first compound 0.03 µM",79%
same,"viability, T/C","second compound 0.1 µM, first compound 0.0949 µM",61.2%
same,"viability, T/C","second compound 0.1 µM, first compound 0.3 µM",73.2%
same,"viability, T/C","second compound 0.1 µM, first compound 0.949 µM",78.1%
same,"viability, T/C","second compound 0.1 µM, first compound 3 µM",69%
same,"viability, T/C","second compound 0.316 µM, first compound 0.00949 µM",93.6%
same,"viability, T/C","second compound 0.316 µM, first compound 0.03 µM",73.4%
same,"viability, T/C","second compound 0.316 µM, first compound 0.0949 µM",66.5%
same,"viability, T/C","second compound 0.316 µM, first compound 0.3 µM",67.4%
same,"viability, T/C","second compound 0.316 µM, first compound 0.949 µM",72.1%
same,"viability, T/C","second compound 0.316 µM, first compound 3 µM",81.2%
same,"viability, T/C","second compound 1 µM, first compound 0.00949 µM",76.9%
same,"viability, T/C","second compound 1 µM, first compound 0.03 µM",70%
same,"viability, T/C","second compound 1 µM, first compound 0.0949 µM",67.8%
same,"viability, T/C","second compound 1 µM, first compound 0.3 µM",80.7%
same,"viability, T/C","second compound 1 µM, first compound 0.949 µM",77.3%
same,"viability, T/C","second compound 1 µM, first compound 3 µM",65%
same,"viability, T/C","second compound 3.16 µM, first compound 0.00949 µM",81.9%
same,"viability, T/C","second compound 3.16 µM, first compound 0.03 µM",83.6%
same,"viability, T/C","second compound 3.16 µM, first compound 0.0949 µM",62.5%
same,"viability, T/C","second compound 3.16 µM, first compound 0.3 µM",75.5%
same,"viability, T/C","second compound 3.16 µM, first compound 0.949 µM",71.3%
same,"viability, T/C","second compound 3.16 µM, first compound 3 µM",75.2%
same,"viability, T/C","second compound 10 µM, first compound 0.00949 µM",85.6%
same,"viability, T/C","second compound 10 µM, first compound 0.03 µM",72.3%
same,"viability, T/C","second compound 10 µM, first compound 0.0949 µM",62.8%
same,"viability, T/C","second compound 10 µM, first compound 0.3 µM",60.5%
same,"viability, T/C","second compound 10 µM, first compound 0.949 µM",75.5%
same,"viability, T/C","second compound 10 µM, first compound 3 µM",74.7%
